Reference: US8278072B1, “Method for synthesis of sialylated products using reversible sialylation” (Health Research, Inc., priority 2007, dated 2012)
Structures can show the parent of a compound that is named as a salt. Where two headings read alike, the source gives them in different places.

What was measured:
Assay type in all cases: biochemical
[1] = target: T1, ST3Gal-II (Rattus norvegicus, UniProt Q11205); test: CMP-NeuAc / UMP-NeuAc formed by reverse sialylation as sialyl donor, ST3Gal-II activity; settings: acceptor 2.5 mM D-Fucβ1,3GalNAcα-O-Bn; donor [3] 0.0625 mM, 8 mM 5′-CMP or 5′-UMP, 4 h, blank subtracted
T1 construct: purchased Calbiochem
T1 sequence (Q11205 1-350): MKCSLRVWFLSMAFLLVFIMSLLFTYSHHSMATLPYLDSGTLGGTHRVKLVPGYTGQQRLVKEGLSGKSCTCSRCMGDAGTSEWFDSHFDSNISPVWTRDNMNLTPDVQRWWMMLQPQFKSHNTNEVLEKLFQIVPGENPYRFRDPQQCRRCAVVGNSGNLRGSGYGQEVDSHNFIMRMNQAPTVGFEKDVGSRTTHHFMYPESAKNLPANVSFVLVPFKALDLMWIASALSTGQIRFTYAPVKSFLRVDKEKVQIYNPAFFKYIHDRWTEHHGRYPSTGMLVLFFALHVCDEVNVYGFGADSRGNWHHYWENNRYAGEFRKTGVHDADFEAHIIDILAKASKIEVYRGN

[2] = target: T2, ST3Gal-III (Rattus norvegicus, UniProt Q02734); test: CMP-NeuAc / UMP-NeuAc formed by reverse sialylation as sialyl donor, ST3Gal-III activity; settings: acceptor 2.5 mM 4-O-MeGalβ1,4GlcNAcβ-O-Bn; donor [3] 0.0625 mM, 8 mM 5′-CMP or 5′-UMP, ST3Gal-II plus ST3Gal-III, 4 h
T2 construct: purchased Calbiochem
T2 sequence (Q02734 1-374): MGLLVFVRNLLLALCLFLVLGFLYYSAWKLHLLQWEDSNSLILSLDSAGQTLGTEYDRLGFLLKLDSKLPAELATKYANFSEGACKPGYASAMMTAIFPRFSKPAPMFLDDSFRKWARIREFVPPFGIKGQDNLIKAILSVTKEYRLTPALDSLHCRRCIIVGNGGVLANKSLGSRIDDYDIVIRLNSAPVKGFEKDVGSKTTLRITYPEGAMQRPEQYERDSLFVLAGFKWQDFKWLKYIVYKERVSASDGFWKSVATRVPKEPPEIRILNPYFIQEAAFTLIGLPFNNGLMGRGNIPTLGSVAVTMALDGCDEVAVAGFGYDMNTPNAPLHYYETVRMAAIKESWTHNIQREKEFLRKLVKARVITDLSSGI

[3] = target: T3, ST6Gal-I (Rattus norvegicus, UniProt P13721); test: CMP-NeuAc / UMP-NeuAc formed by reverse sialylation as sialyl donor, ST6Gal-I activity; settings: acceptor 2.5 mM Galβ1,4GlcNAcβ-O-Bn; donor [3] 0.0625 mM, 8 mM 5′-CMP or 5′-UMP, ST3Gal-II plus ST6GalI, 4 h
T3 construct: purchased Calbiochem
T3 sequence (P13721 1-403): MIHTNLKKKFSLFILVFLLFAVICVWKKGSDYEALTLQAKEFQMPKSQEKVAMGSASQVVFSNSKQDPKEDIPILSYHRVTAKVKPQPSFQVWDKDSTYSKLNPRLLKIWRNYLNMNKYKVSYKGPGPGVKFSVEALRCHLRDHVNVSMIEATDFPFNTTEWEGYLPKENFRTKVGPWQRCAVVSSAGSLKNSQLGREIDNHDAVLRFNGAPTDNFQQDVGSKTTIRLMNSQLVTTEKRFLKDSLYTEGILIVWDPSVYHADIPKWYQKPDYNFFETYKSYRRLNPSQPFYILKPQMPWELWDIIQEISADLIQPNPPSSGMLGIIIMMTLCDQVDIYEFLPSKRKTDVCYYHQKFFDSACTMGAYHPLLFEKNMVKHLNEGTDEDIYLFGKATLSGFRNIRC

[4] = target: T4, ST3Gal I (Cloned Human) (Homo sapiens, UniProt Q11201); test: Forward (direct) sialyltransferase activity, ST3Gal I
T4 sequence (Q11201 1-340): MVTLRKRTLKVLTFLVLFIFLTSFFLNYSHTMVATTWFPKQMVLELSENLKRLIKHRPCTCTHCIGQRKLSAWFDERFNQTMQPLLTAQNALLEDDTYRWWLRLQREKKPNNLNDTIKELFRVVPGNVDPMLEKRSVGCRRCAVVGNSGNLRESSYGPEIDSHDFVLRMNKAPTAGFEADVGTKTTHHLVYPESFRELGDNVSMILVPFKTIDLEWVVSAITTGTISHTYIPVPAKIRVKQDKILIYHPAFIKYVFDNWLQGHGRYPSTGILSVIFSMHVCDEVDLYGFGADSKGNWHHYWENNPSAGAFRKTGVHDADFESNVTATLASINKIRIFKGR
Experimental: (§1) Besides pH other distinctions were also observed between forward and reverse sialylation. In this regard, citrate ions tended to inhibit forward sialylation but not reverse sialylation activity (Table V). For these studies, the effect of citrate on the forward sialylation activity of ST3Gal-I, ST3Gal-II, ST3Gal-III and ST6Gal-I was examined. Reverse sialylation activity of ST3Gal-II was also measured in terms of: i) the formation of CMP-NeuAc from 5′-CMP; and ii) the transfer of NeuAc from this newly synthesized CMP-NeuAc to another O-glycan. From the data (Table V), it is evident that citrate inhibits the direct sialylation activity of all the enzymes mentioned above. However, both the synthesis of CMP-[9-^3H]NeuAc from 5′-CMP as well as the synthesis of [9-^3H]NeuAcα2,3D-Fucβ1,3 GalNAcα-O-Bn using the newly formed CMP-[9-^3H]NeuAc through reverse sialylation of ST3Gal-II was not inhibited by citrate.

[5] = target: T5, ST3Gal II (Cloned rat liver) (Rattus norvegicus, UniProt Q11205); test: Forward (direct) sialyltransferase activity, ST3Gal-II
T5 construct: purchased Calbiochem
T5 sequence (Q11205 1-350): T1 sequence (Q11205 1-350)
Experimental: (§2) FIG. 5. Effect of 5′-nucleotides on direct sialyltransferase activity (panel a) and reverse sialylation (panel b). a. Varying concentrations of 5′-CDP or 5′-CMP were added to 100 mM acceptor (specified below), 0.15 mM CMP-[9-^3H]NeuAc and either ST3Gal-II (0.2 mU), ST3Gal-III (0.5 mU) or ST6Gal-I (0.2 mU) for 4 h at 37° C. Products were separated using Sep-Pak C18 method. ST3Gal-III activity was measured using acceptor 4-O-MeGalβ1,4GlcNAcβ-O-Bn in the presence of 5′-CDP (●) and 5′-CMP (◯). ST6Gal-I activity was measured using Gal β1,4GlcNAcβ-O-Bn in the presence of 5′-CDP (▴) and 5′-CMP (Δ). ST3Gal-II using D-Fucβ1,3GalNAcα-O-Bn in the presence of 5′-CDP (▪) and 5′-CMP (□). b) Reverse sialylation by ST3Gal-II was measured in reaction mixtures containing 0.2 mM [9-^3H] [3], 7 mM 5′-CMP, ST3Gal-II (2 mU), D-Fucβ1,3GalNAcα-OBn (3.0 mM) and varying doses of either 5′-CDP (▴), 5′-UMP (◯) or 2-deoxy 5′-CMP (●) for 4 hours at 37° C. Reaction product ([9-^3H]NeuAcα2,3DFucβ1,3 GalNAcα-O-Bn) was isolated using Sep-Pak C18 method. In some runs, where was absent, the amount of CMP-NeuAc produced was quantified using the Dowex-1 Formate method in the presence of varying doses of 5′-CDP (▪).
as §1
(§3) The effect of 5′-nucleotides on forward sialylation (FIG. 5a) and reverse sialylation (FIG. 5b) were examined. […] The overall formation of [9-^3H]NeuAcα2,3D-Fucβ1,3 GalNAcα-O-Bn by the two-step reverse sialylation process, however, was inhibited by 5′-CDP and this is consistent with the finding that 5′-CDP inhibits forward sialylation in the second step.

[6] = target: T6, ST3Gal III (Cloned rat liver) (Rattus norvegicus, UniProt Q02734); test: Forward (direct) sialyltransferase activity, ST3Gal-III
T6 construct: purchased Calbiochem
T6 sequence (Q02734 1-374): T2 sequence (Q02734 1-374)
Experimental: as §2, §1, §3

[7] = target: T7, ST6Gal I (Cloned rat liver) (Rattus norvegicus, UniProt P13721); test: Forward (direct) sialyltransferase activity, ST6Gal-I
T7 construct: purchased Calbiochem
T7 sequence (P13721 1-403): T3 sequence (P13721 1-403)
Experimental: as §2, §1, §3

[8] = target: T1, ST3Gal-II; test: Reverse sialylation by ST3Gal-II in presence of citrate or 5′-nucleotides; settings: for inhibition at 40000 µM: 40 mM citrate, donor [3]
Experimental: as §2, §1, §3

[9] = acceptor Galβ1,3GalNAcβ-O-Al 1.0 mM, 0.15 mM CMP-[9-3H]NeuAc, 4 hours

SMILES | Incorporation of [9-3H]NeuAc into the acceptor, ST3Gal-II activity [1] [CPM] | Incorporation of [9-3H]NeuAc into the acceptor, ST3Gal-III activity [2] [CPM] | Incorporation of [9-3H]NeuAc into the acceptor, ST6Gal-I activity [3] [CPM] | inhibition at 40000 µM [4] [%] | Activity (Incorporation of [9-3H]NeuAc) with citrate (40 mM) [4, 9] [CPM] | inhibition at 40000 µM ([5]; 40 mM citrate, acceptor Galβ1,3GalNAcβ-O-Al) [%] | Activity (Incorporation of [9-3H]NeuAc) with citrate (40 mM) [5, 9] [CPM] | inhibition at 40000 µM ([6]; 40 mM citrate, acceptor 4-O-MeGalβ1,4GlcNAcβ-O-Bn) [%] | Activity (Incorporation of [9-3H]NeuAc) with citrate (40 mM) ([6]; acceptor 4-O-MeGalβ1,4GlcNAcβ-O-Bn 1.0 mM, 0.15 mM CMP-[9-3H]NeuAc, 4 hours) [CPM] | inhibition at 40000 µM ([7]; 40 mM citrate, acceptor Galβ1,4GlcNAcβ-O-Bn) [%] | Activity (Incorporation of [9-3H]NeuAc) with citrate (40 mM) ([7]; acceptor Galβ1,4GlcNAcβ-O-Bn 1.0 mM, 0.15 mM CMP-[9-3H]NeuAc, 4 hours) [CPM] | inhibition at 40000 µM ([8]; read-out: Inhibition of synthesis of CMP-[9-3H]NeuAc from 5′-CMP) [%] | inhibition at 40000 µM ([8]; read-out: Inhibition of synthesis of [9-3H]NeuAcα2,3D-Fucβ1,3GalNAcα-OBn through 5′-CMP) [%] | Activity (Incorporation of [9-3H]NeuAc) with citrate (40 mM): synthesis of [9-3H]NeuAcα2,3D-Fucβ1,3GalNAcα-OBn through 5′-CMP ([8]; donor […] [3], 20 mM 5′-CMP, 3.0 mM D-Fucβ1,3GalNAcα-OBn, 4 hours) [CPM] | Activity (Incorporation of [9-3H]NeuAc) with citrate (40 mM): synthesis of CMP-[9-3H]NeuAc from 5′-CMP ([8]; donor […] [3], 20 mM 5′-CMP, 5.0 mU ST3Gal-II, 4 hours) [CPM]
CC(=O)NC1C(O)CC(OP(=O)(O)OCC2OC(n3ccc(=O)[nH]c3=O)C(O)C2O)(C(=O)O)OC1C(O)C(O)CO (stereo not drawn) [UMP-NeuAc] | 1243 | 3804 | 182 | – | – | – | – | – | – | – | – | – | – | – | –
O=C(O)CC(O)(CC(=O)O)C(=O)O [citrate, sodium citrate] | – | – | – | 98.3 | 402 | 48.2 | 33025 | 64.3 | 39115 | 92.4 | 7471 | 0 | 0 | 59131 | 48800
